This is an account of results in patent US20260055097A9, “NRF2 PROTEIN DEGRADERS” (Ganymede Oncology, Inc., priority 2022, published 2026).

In general, IC50 refers to the point on the concentration scale where inhibition reaches its midpoint. By DC50 is commonly meant the concentration giving 50% degradation.

SMILES strings stand for the structures. Read-outs that look alike come from different tables or passages of the source. Some results are limits rather than exact numbers.

What all share (format): cell-based
One test relates to A549. In words: Cancer cell viability, A549 (CellTiter-Glo). To be noted: Homo sapiens, 72 h, A549 cells, 3 days, read-out: Cellular IC50 (μM) A549. The gist of the method:
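A549 and/or LK-2 lung carcinoma cells seeded overnight (20 K/mL A549; 35 K/mL LK-2), then exposed to compound for 3 days. Viability read as CellTiter-Glo luminescence after 15 min lysis; data fitted to curves.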
A general note: ATP-based viability assays read luminescence as a measure of living cells.

In a further test the test system is LK-2. In words: Cancer cell viability, LK-2 (CellTiter-Glo). The following applies: Homo sapiens, LK-2, 72 h, LK-2 cells, 3 days, read-out: Cellular IC50 (μM) LK-2. An outline of the steps:
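A549 and LK-2 cells were seeded overnight at 20 K/mL and 35 K/mL respectively. They were then exposed for 3 days to nine three-fold dilutions, typically from 30 µM final. Viability was read as CellTiter-Glo luminescence after a 15 min lysis.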

The target of another test is T1, Nrf2 (Homo sapiens, UniProt Q16236).
T1 sequence (Q16236 1-605): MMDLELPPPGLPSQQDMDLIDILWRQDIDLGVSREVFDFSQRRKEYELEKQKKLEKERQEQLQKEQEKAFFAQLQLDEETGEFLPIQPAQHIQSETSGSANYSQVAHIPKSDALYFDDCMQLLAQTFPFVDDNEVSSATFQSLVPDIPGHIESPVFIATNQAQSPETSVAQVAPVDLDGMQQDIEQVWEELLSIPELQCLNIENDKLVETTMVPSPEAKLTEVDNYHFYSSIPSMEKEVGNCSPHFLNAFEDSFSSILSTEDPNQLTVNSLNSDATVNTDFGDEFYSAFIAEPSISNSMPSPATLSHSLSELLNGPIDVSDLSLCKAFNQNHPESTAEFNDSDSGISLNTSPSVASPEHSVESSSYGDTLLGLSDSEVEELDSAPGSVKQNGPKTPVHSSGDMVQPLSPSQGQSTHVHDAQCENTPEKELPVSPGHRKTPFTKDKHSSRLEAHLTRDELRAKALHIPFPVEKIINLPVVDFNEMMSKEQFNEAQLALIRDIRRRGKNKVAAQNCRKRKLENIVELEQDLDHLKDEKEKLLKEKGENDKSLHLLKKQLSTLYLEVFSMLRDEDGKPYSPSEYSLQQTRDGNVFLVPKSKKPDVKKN
Nature of the test: Nrf2 degradation in A549 HiBiT-Nrf2 cells, Nano-Glo HiBiT lytic detection (HiBiT readout). The arrangement: host or cells: A549 HiBiT-Nrf2 cells (engineered line bought from Promega). An outline of the steps: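 A549 HiBiT-Nrf2 cells seeded at 5,000 cells/well in Ham's F-12 with 10% FBS, then treated next day for 6 h and 20 h at 37 °C, 5% CO2. Nrf2 degradation read by Nano-Glo HiBiT lytic luminescence after 30 min at room temperature; staurosporine served as control.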
On the technique in general: With HiBiT, luminescence reflects the tagged protein that the partner subunit can reach.

The mark [1] stands for this setting: 6 h, read-out: DC50 (nM) at 6 h.
The mark [2] stands for this setting: 20 h, read-out: DC50 (nM) at 20 h.

For `Cc1sc(NC(=O)Cc2ccc(F)c(OCCOCCNc3ccc4c(c3)CN(C3CCC(=O)NC3=O)C4=O)c2)nc1-c1ccc2c(c1)CCN2C(=O)c1cncn1C` (centres unmarked) [Cpd. No. 30, 2-(3-(2-(2-((2-(2,6-dioxopiperidin-3-yl)-1-oxoisoindolin-5-yl)amino)ethoxy)ethoxy)-4-fluorophenyl)-N-(5-methyl-4-(1-(1-methyl-1H-imidazole-5-carbonyl)indolin-5-yl)thiazol-2-yl)acetamide], the IC50 in the test with A549 worked out at 0.01 µM; in the test with LK-2 it was 0.003 µM. The half-maximal degradation concentration (DC50) is below 300 nM on Nrf2 (setting [1]) and above 3000 nM at Nrf2 (setting [2]).
As for `Cc1sc(NC(=O)Cc2cccc(OCCOCCNc3cccc4c3C(=O)N(C3CCC(=O)NC3=O)C4=O)c2)nc1-c1ccc2c(c1)CCN2C(=O)C1CC1` (centres unmarked) [Cpd. No. 34, N-(4-(1-(cyclopropanecarbonyl)indolin-5-yl)-5-methylthiazol-2-yl)-2-(3-(2-(2-((2-(2,6-dioxopiperidin-3-yl)-1,3-dioxoisoindolin-4-yl)amino)ethoxy)ethoxy)phenyl) acetamide], the IC50 was found to be 0.06 µM in the test with A549 and 0.02 µM in the test on LK-2. Also, the DC50 on Nrf2 (setting [1]) and at Nrf2 (setting [2]) was below 300 nM each time.
